Values of other authors in patent US11122832B2, “Methods and compositions to improve weight loss and cardiometabolic health beyond diet and excercise” (Nature's Sunshine Products, Inc., priority 2016, dated 2021).
Read-outs that look alike come from different tables or passages of the source.

Experiments:
[1] = not given; remark: listed apart in the source
[2] = tested on: plasma concentration of NOx; settings: 6 g, over 120 minutes, healthy individuals with normal plasma ADMA

Structure (SMILES): O=[N+]([O-])O [NO3, nitrate]
- bioavailability of dietary NO3 (dietary (oral)): 100%
- clearance from blood to urine (in adults): approximately 20 mL/min
- time to peak plasma concentration (orally consumed): approximately 1 hour
- half-life of plasma NO3 (plasma): 5 to 8 h

Structure (SMILES): CCCCCCCCCCC[C@@H](C[C@@H]1OC(=O)[C@H]1CCCCCC)OC(=O)[C@H](CC(C)C)NC=O [Orlistat]
- ≥5% weight loss responders ([1]; Period 24 weeks): 42%
- ≥10% weight loss responders ([1]; Period 24 weeks): 15%
- ≥5% weight loss responders ([1]; Period 24 weeks, listed as orlistat): 42%

Structure (SMILES): O=NO [NO2, nitrite]
- filtered amount reabsorbed in the renal tubules (estimated): 96%

Structure (SMILES): [N]=O [NO, Nitric oxide]
- half-life of NO once produced through NOS (in vivo): approximately 1 second

Structure (SMILES): N=C(N)NCCC[C@H](N)C(=O)O [L-arginine]
- plasma concentration of NOx after acute supplementation [2]: does not increase

Structure (SMILES): C[C@H]1CNCCc2ccc(Cl)cc21 [Lorcaserin]
- Responders (5% weight loss) ([1]; Evaluation 12 weeks, BID 10 mg, placebo 12%): 36%
- ≥10% weight loss responders ([1]; Period 56 weeks, placebo 9%): 22%
- ≥5% weight loss responders ([1]; Period 56 weeks, placebo 23%): 47%
